The values below come from patent US6028061A, “Angiogenesis inhibitors and use thereof” (Children's Medical Center Corp, priority 1998, dated 2000).

Series [1] deals with FGF-2 mitogenic activity in F32 cells. Nature of the series: FGF-2 mitogenicity assay in F32 cells, absence of added heparin ([3H]-thymidine incorporation; stimulation of FGF-2 activity). Format: cell-based. The conditions noted are these: for [3H]-thymidine incorporation, controls alone: F32 cells, heparin (alone) and FGF-2 (alone) controls. The protocol:
(§1) Assay of FGF-2 mitogenic activity, FGF-2 mitogenicity assays were performed in F32 cells that express FGF-receptor 1 (FGF-R1)(16) but no detectable levels of heparan sulfate proteoglycans (17). […] Tested glycosaminoglycans were added in concentrations ranging from 1-5000 ng/ml. Proliferation was measured after 40 h incubation in 200 μl medium (RPM1 1640, 10% heat-inactivated newborn calf serum) in the presence of a 1 μCi/well pulse of [^3 H]-thymidine during the final 6 h of the incubation. Radioactivity incorporated into DNA was quantified by scintillation counting, MTT, 3-[4,5-dimethylthiazol-2-yl]-2,5-diphenyl tetrazolium bromide (Thiazole blue), used to determine cell viability, was from Sigma Chemical (St. Louis, Mo.).
(§2) Influence of glycosaminoglycans and their derivatives on FGF-2 mitogenic activity. The direct influence of acharan sulfate and its derivative on FGF-2 mitogenic activity was measured in the absence of added heparin. […] The effect of acharan sulfate on cell viability was assessed by measuring the formation of a chromogen from MTT, a tetrazolium dye that is converted solely by living cells (18). […] Thus, the inhibition of mitogenicity is not due to toxicity leading to reduced cell number.

Series [2] has as its target FGF-2. Nature of the series: Isothermal titration calorimetry of glycosaminoglycan binding to FGF-2. The conditions noted are these: for Kd / n, average number of FGF-2 molecules occupying a single glycosaminoglycan chain (stoichiometry): 50 mM sodium phosphate pH 7.4, 100 mM NaCl, 25° C; for FGF-2 binding (in words): isothermal titration calorimetry. The protocol:
Interaction of glycosaminoglycans and their derivatives with FGF-2. Isothermal titration calorimetry was performed in 50 mM sodium phosphate buffer, pH 7.4, containing 100 mM sodium chloride at 25° C. as previously described (15).
Determination of the FGF-2 binding affinity of glycosaminoglycans and their derivatives. Isothermal titration calorimetry was performed with heparin oligosaccharides, herapin, acharan sulfate and N-sulfoacharan sulfate. The heat of interaction (ΔH) is directly measured in this experiment. From this heat of interaction the Kd, and n (stoichiometry) of interaction can be deduced. The minimum FGF-2 binding site is a tetra- or hexasaccharide. […] The n value is consistent with the molecular weight of each ligand (Table 2).

Series [3] relates to FGF-2. The conditions noted are these: cited from earlier work.
The test system of series [4] is FGF-2 mitogenic activity in F32 cells. Nature of the series: FGF-2 mitogenicity assay in F32 cells, presence of 10 ng/ml heparin ([3H]-thymidine incorporation; inhibition of heparin-mediated activity). Format: cell-based. The conditions noted are these: for FGF-2 mitogenicity in the presence of heparin (in words): 10 ng/ml heparin, 150 pM FGF-2, 40 h. The protocol: as §1, §2

For series [5], the system named is F32 cells. Nature of the series: MTT cell viability assay. Type of series: cell-based. The conditions noted are these: 40 h incubation, same concentrations as in the mitogenicity assays. The protocol:
as §1, §2

“Also recorded” adds a separate entry of the source. Where only a bound is given, the exact number is not on record here.

As to “FGF-2: growth factor, control alone in F32 mitogenicity assay”, the “[3H]-thymidine incorporation, controls alone” value in series [1] is given as ~ 750 cpm.
As for Heparin [reference compound], in series [2], binding was put at a Kd of 36 nM and the “FGF-2 binding (in words)” value is listed as “bind FGF-2 most tightly”. Moreover, in series [1], the “[3H]-thymidine incorporation, controls alone” value is reported as ~ 750 cpm. The “mitogenic activity (literature, in words)” value in series [3] is “known to enhance the activity of FGF-2”.
“Low molecular weight heparin [reference compound]”: in series [2], the Kd came out at 36 nM and the “n, average number of FGF-2 molecules occupying a single glycosaminoglycan chain (stoichiometry)” value (shortened to “n, average number”) turned out to be 3.6.
With “ΔUAp2S(1→[4)GlcNp2S6S(1→4)IdoAp2S(→]m=1-5) [dodecasaccharide, reference compound]”, the “n, average number” value in series [2] is reported as 1.8.
Consider “→4)GlcNp2S(1→4)IdoAp2S(1→ [N-sulfoacharan sulfate]”, for which, in series [2], binding was put at a Kd of 90 nM; the “n, average number” value is on record as 4.4; the “FGF-2 binding (in words)” value is recorded as “bind FGF-2 most tightly; also recorded: tightly bound multiple FGF-2 molecules”. The “FGF-2 mitogenic activity (in words)” value in series [1] (absence of added heparin) is reported as “about the same activity as the syndecan-1 ectodomain; also recorded: minimal mitogenic activity compared with that of heparin”. In addition, the “activity relative to heparin, fold less active” value in series [1] (absence of added heparin, on a weight basis) is recorded as “about 150 fold”. The “FGF-2 mitogenicity in the presence of heparin (in words)” value (“FGF-2 mitogenicity in the presence” below) in series [4] is reported as “no discernible effect on FGF-2 mitogenicity induced by heparin”. Also, the “FGF-2 mitogenicity in the presence” value in series [4] (listed as N-sulfoacharan) is on record as “failed to further stimulate FGF-2 mitogenicity”.
As for “→4)GlcNpAc(1→4)IdoAp2S(1→ [Acharan sulfate]”, in series [2], the Kd stood at 4500 nM; the “n, average number” value is reported as 13.4; the “FGF-2 binding (in words)” value is reported as “binds very poorly; also recorded: very weak”. Moreover, the Kd in series [2] (listed as acharan sulfate) was greater than 4000 nM. The “cell viability (number of living cells, MTT)” value in series [5] is recorded as “no reduction in the number of living cells”. Further, the “FGF-2 mitogenicity in the presence” value in series [4] is “markedly decreased the mitogenic activity in a concentration dependent manner; also recorded: inhibited FGF-2 mitogenicity in the presence of heparin”. Also, the “IC50 of inhibition of FGF-2 mitogenicity” value in series [4] (in the presence of 10 ng/ml heparin) is recorded as ~ 400 ng/ml.
